ChEMBL document CHEMBL3632587, “Discovery of a Specific Inhibitor of Pyomelanin Synthesis in Legionella pneumophila” (J Med Chem, 2015)
Several values for one entry are separate records, joined by “and”; a condition that tells them apart may be missing. Equal entries are not always repeated. Activity calls are given as the source filed them. The calls are words filed in the database; no cut-off is given here.

Experiments:
Legionella pneumophila [1] = assay: Inhibition of Legionella pneumophila recombinant PAH assessed as residual activity by […] assay using 1 mM L-Phe as substrate and 200 uM BH4 as cofactor
Legionella pneumophila [2] = assay: Antibacterial activity against Legionella pneumophila 130b assessed as bacterial growth at 40 uM after 24 hrs by spectrometer; assay type: functional, organism-based
[3] = Mixed inhibition of Legionella pneumophila recombinant PAH for enzyme-substrate complex by […] assay method using L-Phe as substrate
[4] = Non-competitive inhibition of Legionella pneumophila recombinant PAH for enzyme-substrate complex by […] assay using BH4 as cofactor
Legionella pneumophila [5] = assay: Antibacterial activity against Legionella pneumophila 130b assessed as bacterial growth at 20 uM after 24 hrs by spectrometer; assay type: functional, organism-based
[6] = Binding affinity to Legionella pneumophila recombinant PAH by DSF assay
[7] = Non-competitive inhibition of Legionella pneumophila recombinant PAH for free enzyme by […] assay using BH4 as cofactor
Legionella pneumophila [8] = assay: Inhibition of PAH in Legionella pneumophila 130b lysate assessed as residual activity at 10 uM by direct detect spectrometer
Legionella pneumophila [9] = assay: Antibacterial activity against Legionella pneumophila 130b assessed as bacterial growth at <= 10 uM after 24 hrs by spectrometer; assay type: functional, organism-based
Escherichia coli [10] = assay: Antibacterial activity against Escherichia coli XL-10 Gold assessed as slower growth rate at > 40 uM after 21 hrs; assay type: functional, organism-based
[11] = target: T1, Phenylalanine-4-hydroxylase (Homo sapiens) (UniProt P00439); assay: Inhibition of human PAH by […] assay using L-Phe as substrate and 75 uM BH4 as cofactor
T1 sequence (whole entry): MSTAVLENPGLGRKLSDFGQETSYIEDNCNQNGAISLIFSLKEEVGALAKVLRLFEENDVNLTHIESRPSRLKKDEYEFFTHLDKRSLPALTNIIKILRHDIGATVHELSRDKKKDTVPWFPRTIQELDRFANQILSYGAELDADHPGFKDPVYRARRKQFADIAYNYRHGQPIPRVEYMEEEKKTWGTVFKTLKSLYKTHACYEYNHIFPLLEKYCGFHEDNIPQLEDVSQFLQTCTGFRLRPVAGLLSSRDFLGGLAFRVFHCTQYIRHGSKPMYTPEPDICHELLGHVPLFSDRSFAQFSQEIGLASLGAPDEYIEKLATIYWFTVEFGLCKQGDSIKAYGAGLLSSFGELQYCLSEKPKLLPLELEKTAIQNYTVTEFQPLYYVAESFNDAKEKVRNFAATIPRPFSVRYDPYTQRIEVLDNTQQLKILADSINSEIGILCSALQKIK

Escherichia coli [12] = assay: Antibacterial activity against Escherichia coli XL-10 Gold at <= 100 uM after 21 hrs; assay type: functional, organism-based
[13] = Mixed inhibition of Legionella pneumophila recombinant PAH for free enzyme by […] assay using L-Phe as substrate
[14] = Uncompetitive inhibition of Legionella pneumophila recombinant PAH for free enzyme by […] assay using L-Phe as substrate
[15] = Uncompetitive inhibition of Legionella pneumophila recombinant PAH for enzyme-substrate complex by […] assay using L-Phe as substrate
Legionella pneumophila [16] = assay: Antibacterial activity against Legionella pneumophila 130b assessed as bacterial growth at 0.1 to 40 uM after 24 hrs by spectrometer; assay type: functional, organism-based

**Q.** For `CN1CCN(c2cc(-c3ccccn3)nc3ccccc23)CC1`, which Activity (Legionella pneumophila [1]) is on record?
**A.** 2.6%

**Q.** For `O=C(C1=C(O)C(=O)N(c2nncs2)C1c1ccc(Cl)cc1)c1cccs1` (configuration not stated), which Activity (Legionella pneumophila [1]) is on record?
**A.** 2.23%

**Q.** With `c1ccc(-c2cc(N3CCOCC3)c3ccccc3n2)nc1` as the compound, how does the Activity (Legionella pneumophila [1]) read?
**A.** 4.9% and 2.6%

**Q.** For `O=c1cc(CO)oc(C(Nc2nccs2)c2ccc(F)cc2)c1O` (configuration not stated), which Activity (Legionella pneumophila [1]) is on record?
**A.** 0.1%

**Q.** For `c1ccc(-c2cc(N3CCCCC3)c3ccccc3n2)nc1`, which Activity (Legionella pneumophila [1]) is on record?
**A.** 3.1%

**Q.** For `c1ccc2c(c1)CSc1sccc1C2n1ccnc1` (configuration not stated), which Activity (Legionella pneumophila [2]) is on record?
**A.** Active

**Q.** What about the Ki [3] of the same compound?
**A.** 4.1 µM

**Q.** What about the Ki [4] of the same compound?
**A.** 1.7 µM

**Q.** What about the Activity (Legionella pneumophila [5]) of the same compound?
**A.** Active

**Q.** And the Activity (Legionella pneumophila [1])?
**A.** 0.38%

**Q.** What about the Kd [6] of the same compound?
**A.** 1.1 µM

**Q.** What about the Ki [7] of the same compound?
**A.** 2 µM

**Q.** And the Activity (Legionella pneumophila [8])?
**A.** 36%

**Q.** And the Activity (Legionella pneumophila [9])?
**A.** inactive

**Q.** And the Activity (Escherichia coli [10])?
**A.** Active

**Q.** And the inhibition [11]?
**A.** Active

**Q.** And the Activity (Escherichia coli [12])?
**A.** inactive

**Q.** What about the Ki [13] of the same compound?
**A.** 2.2 µM

**Q.** With `O=C(C1=C(O)C(=O)N(Cc2ccco2)C1c1ccc(Oc2ccccc2)cc1)c1cccs1` (configuration not stated) as the compound, how does the Activity (Legionella pneumophila [1]) read?
**A.** 1.53%

**Q.** What does the source list for `O=C(O)c1cc([N+](=O)[O-])cc2c1-c1ccc([N+](=O)[O-])cc1/C2=N/O`?
**A.** Ki [4]: 1 µM; Ki [14]: 20 µM; Activity (Legionella pneumophila [1]): 0.1%; Ki [7]: 1 µM; Activity (Legionella pneumophila [8]): 39%; Ki [15]: 0.37 µM; Activity (Legionella pneumophila [16]): Active

**Q.** Which Activity (Legionella pneumophila [1]) does the source give for `S=C(NNC(=S)Nc1ccccc1)Nc1ccccc1` here?
**A.** 1.9%

**Q.** For `c1ccc2c(c1)CSc1ccccc1C2n1ccnc1` (configuration not stated), which Activity (Legionella pneumophila [1]) is on record?
**A.** 1.6%

**Q.** For `CC(C)(C)c1ccc(C2C(C(=O)c3cccs3)=C(O)C(=O)N2c2nncs2)cc1` (configuration not stated), which Activity (Legionella pneumophila [1]) is on record?
**A.** 4.2%

**Q.** With `CC1(C)CC(=O)C2=C(C1)NC1=C(C(=O)CC(C)(C)C1)C2c1cnc[nH]1` as the compound, how does the Activity (Legionella pneumophila [1]) read?
**A.** 3.2%

**Q.** With `Cc1nccn1C1c2ccccc2CSc2sccc21` (configuration not stated) as the compound, how does the Activity (Legionella pneumophila [1]) read?
**A.** 2.2%

**Q.** Which Activity (Legionella pneumophila [1]) does the source give for `Oc1cc(C(F)(F)F)nn1-c1nc2ccccc2s1` here?
**A.** 1.4%
